These results are taken from patent US12163111B2 (priority 2017, dated 2024).

On data set [1], the source says:
Various materials used to manufacture a cell culture device have been tested. One material used for the cell culture device, PEEK, is a strong plastic polymer that is resistant to wear. PEEK is advantageous in drug testing because it is non-absorbent as opposed to, for example, the commonly used poly(dimethylsiloxane) (PDMS), which is known to retain small hydrophobic molecules, such as nicotine. PEEK has been found not to retain nicotine or NNK, another small hydrophobic molecule. Therefore, the cell culture device is suitable for the testing of drug effects on the tissues housed within the cell culture device without risk of the drug concentration (or concentration of its metabolites) being altered by the material.
PEEK has the advantage of not being absorbent towards small molecules. […] This is important since materials used for commercially available plates such as PDMS are known to trap small hydrophobic molecules.

The conditions of data set [2]: PDMS plate, 8 hours incubation at 4° C.

Where two headings read alike, the source gives them in different places.

For `CN1CCCC1c1cccnc1` (stereo not shown) [nicotine], the “amount of nicotine remaining in the plate” value was “about 100%” in data set [1] (8 h) and “about 35%” in data set [2]. In addition, in data set [1], the “absorbance of PEEK towards the molecule (trapping by the material)” value is given as “not trapped by the material”.

On to `CN(CCCC(=O)c1cccnc1)N=O` [NNK, 4-(methylnitrosamino)-1-(3-pyridyl)-1-butanone], for which the “absorbance of PEEK towards the molecule (trapping by the material)” value in data set [1] is “not trapped by the material”.
